Data on 4 compounds can be found in patent US9057727B2, “Screening methods using G-protein coupled receptors and related compositions” (The General Hospital Corporation, priority 2007, dated 2015).

In experiment [1] the target is hPTH1R (RG form of the human PTH receptor). Briefly: RG memb: hPTH1R+dnGS *M-PTH(1-15).
Experiment [2] addresses T1, hPTH1R (R0 form of the human PTH receptor) (Homo sapiens, UniProt Q03431).
T1 construct: expressed in transfected cells; host or cells: COS-7, transient (Fugene-6)
Briefly: R0 memb: hPTH1R*PTH( 1-34)+GTPgS.

The target in experiment [3] is T2, human PTH receptor (Homo sapiens, UniProt Q03431).
T2 construct: expressed in transfected cells
T2 sequence (Q03431 27-593 limits assumed): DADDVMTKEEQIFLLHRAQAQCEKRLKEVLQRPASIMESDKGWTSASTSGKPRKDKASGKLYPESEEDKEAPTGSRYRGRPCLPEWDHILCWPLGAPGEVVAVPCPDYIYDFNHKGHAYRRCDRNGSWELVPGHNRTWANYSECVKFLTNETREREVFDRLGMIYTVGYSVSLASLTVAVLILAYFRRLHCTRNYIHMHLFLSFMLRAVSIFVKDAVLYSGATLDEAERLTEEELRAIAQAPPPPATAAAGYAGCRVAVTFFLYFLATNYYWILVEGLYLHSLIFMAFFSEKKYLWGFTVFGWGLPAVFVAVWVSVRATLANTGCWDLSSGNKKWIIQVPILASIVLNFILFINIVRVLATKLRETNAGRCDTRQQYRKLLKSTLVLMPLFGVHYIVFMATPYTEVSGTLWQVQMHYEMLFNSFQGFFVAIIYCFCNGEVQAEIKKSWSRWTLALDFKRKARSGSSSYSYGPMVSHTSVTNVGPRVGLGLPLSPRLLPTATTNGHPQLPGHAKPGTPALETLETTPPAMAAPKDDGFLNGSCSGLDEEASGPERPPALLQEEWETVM
In words: cAMP in HRKRK-B7 cells EC50 (nM). From the text: Table printed on a drawing sheet, Figure 25
Head of the field: cAMP in HRKRK-B7 cells EC50 (nM)
First copying reader's note: The column head prints the cell line as HRKRK-B7 while the title prints HKRK-B7.

Experiment [4] is described as follows: Calcemic action in normal rats (blood ionized calcium). The note with it: normal and TPTX rats. The class given is in vivo. The procedure:
Binding to the rat PTHR was also measured in vitro.
Concentration of peptides in stock solution were adjusted by dilution with 25 mmol/L phosphate-citrate buffer/100 mmol/L NaCl/0.05% Tween 80 (pH. 5.0) (PC-buffer). All peptides were allowed to stand on ice immediately before administration.
Female SD-IGS rat at 8 weeks of age (Charles River Japan, Inc.) were measured for their body weight. Blood was collected by tail vein into heparinized capillary tubes and measured for baseline levels of blood ionized calcium and pH using Ca^++/pH analyzer (Model 634/Bayer Medical Ltd.) to give the corrected level of ionized calcium at pH 7.4 for each sample. Rats received intravenous administration of each peptides at a dose of 1 ml/kg. Peptides were administered to groups of 6 rats each respectively. At 1, 2, 4, or 6 hours after administration, blood was collected by tail vein to monitor the time course of corrected blood ionized calcium levels. The time course of changes in corrected ionized calcium levels, compared to vehicle, and are expressed as means+/−standard error.

Experiment [5] deals with T3, ROS 17/2.8 cells (endogenous rat PTHR) (Rattus norvegicus, UniProt P25961).
T3 construct: the rat osteoblastic cell line ROS17/2.8, which endogenously expresses the rat PTHR; endogenous in cells; host or cells: ROS 17/2.8 rat osteosarcoma cells (membranes or intact cells)
T3 sequence (P25961 27-591): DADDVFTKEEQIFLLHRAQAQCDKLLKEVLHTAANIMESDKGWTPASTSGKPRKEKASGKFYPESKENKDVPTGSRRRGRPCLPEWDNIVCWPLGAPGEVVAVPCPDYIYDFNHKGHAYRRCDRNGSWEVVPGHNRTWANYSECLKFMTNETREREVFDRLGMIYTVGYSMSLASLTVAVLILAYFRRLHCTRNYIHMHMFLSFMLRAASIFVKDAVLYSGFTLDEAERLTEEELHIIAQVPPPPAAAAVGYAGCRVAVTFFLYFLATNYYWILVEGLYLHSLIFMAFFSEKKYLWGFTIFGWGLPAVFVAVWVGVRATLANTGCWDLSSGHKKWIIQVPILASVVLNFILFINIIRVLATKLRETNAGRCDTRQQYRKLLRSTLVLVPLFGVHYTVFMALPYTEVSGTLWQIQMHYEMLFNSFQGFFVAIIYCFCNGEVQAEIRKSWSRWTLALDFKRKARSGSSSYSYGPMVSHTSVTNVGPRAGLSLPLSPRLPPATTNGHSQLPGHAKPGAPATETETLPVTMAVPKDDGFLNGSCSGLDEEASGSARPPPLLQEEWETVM
Briefly: Acute cAMP response in ROS 17/2.8 rat osteoblastic cells. Format: cell-based. Conditions: 10^−7 M, hPTH(1-28) 10^−6 M, basal 3.7±0.4.

Experiment [6] is described as follows: Plasma cAMP in mice after subcutaneous injection. Format: in vivo. Here is the method:
FIGS. 9A-9D are graphs showing in vivo plasma cAMP levels in mice treated with PTH analogs. Wild-type mice were injected subcutaneously with vehicle (0.9% NaCl/0.05% Tween-20), or vehicle containing a PTH peptide at a dose-level of 10 to 1,000 nmol of peptide per kg of body weight, and at indicated times after injection, blood was withdrawn from the tail vein, and the amount of cAMP in the resulting plasma was quantified by radioimmuno assay. Each curve corresponds to a peptide at a defined concentration, as indicated in the graph keys. The plasma cAMP concentrations are plotted as picomole per μl plasma.
Wild-type mice were injected subcutaneously with vehicle (0.9% NaCl/0.05% Tween-20), or vehicle containing a PTH peptide so as to achieve a concentration ranging from 10 to 1000 nmol/kg of body weight. At the indicated times after injection, blood was withdrawn from the tail vein, and the amount of cAMP in the resulting plasma was quantified by radioimmuno assay (FIGS. 9A-9D).
Wild-type mice were injected subcutaneously with vehicle (0.9% NaCl/0.05% Tween-20), or vehicle containing a PTH peptide at a dose level of 10 to 1000 nmol/kg of body weight. At indicated times after injection, blood was withdrawn from the tail vein, and the amount of cAMP in the resulting plasma was quantified by radioimmuno assay. Ionized calcium in serum was measured as above and phosphate was measured by a U.V. spectroscopic kit assay.

SMILES strings stand for the structures. Peptide text beside a SMILES is read from it.

T1 sequence (Q03431 27-593 limits assumed): as the sequence (Q03431 27-593 limits assumed) above

A word on the IC50: it is the point on the concentration scale where inhibition reaches its midpoint. Read a low IC50 as higher potency. One may read the EC50 as the concentration giving half of the maximal effect. Consider `CC[C@H](C)[C@H](NC(=O)[C@H](CCC(=O)O)NC(=O)[C@H](C)NC(=O)[C@@H](NC(=O)[C@H](Cc1c[nH]cn1)NC(=O)[C@@H](NC(=O)[C@H](CCC(=O)O)NC(=O)[C@H](C)NC(=O)[C@@H](NC(=O)[C@H](CC(C)C)NC(=O)[C@H](Cc1c[nH]cn1)NC(=O)[C@H](Cc1c[nH]cn1)NC(=O)[C@H](CC(C)C)NC(=O)[C@H](Cc1ccccc1)NC(=O)[C@H](CCC(=O)O)NC(=O)[C@@H](NC(=O)[C@H](CCCNC(=N)N)NC(=O)[C@H](CCC(=O)O)NC(=O)[C@H](CCSC)NC(=O)[C@H](CO)NC(=O)[C@H](CC(N)=O)NC(=O)[C@H](CC(C)C)NC(=O)[C@H](Cc1c[nH]cn1)NC(=O)[C@H](CCCCN)NC(=O)CNC(=O)[C@H](CC(C)C)NC(=O)[C@H](CC(N)=O)NC(=O)[C@H](Cc1c[nH]cn1)NC(=O)[C@H](CCSC)NC(=O)[C@H](CC(C)C)NC(=O)[C@H](CCC(N)=O)NC(=O)[C@@H](NC(=O)[C@H](CCC(=O)O)NC(=O)[C@H](CO)NC(=O)[C@@H](NC(=O)[C@@H](N)CO)C(C)C)[C@@H](C)CC)C(C)C)[C@@H](C)CC)[C@@H](C)CC)[C@@H](C)O)C(=O)O` [PTH(1-22)/PTHrP(23-36)] (H-SVSEIQLMHNLGKHLNSMERVEFLHHLIAEIHTAEI-OH), for which the results for the IC50 in experiment [1] and in experiment [2] were 220 pM and 16800 pM, respectively. In experiment [3], this compound yielded an EC50 of 890 pM. In addition, the “calcemic action compared with control peptides, in words” value in experiment [4] is “weaker calcemic actions than did either PTH(1-34) or PTHrP(1-36) control peptides”.

For `CC[C@H](C)[C@H](NC(=O)[C@H](CCC(=O)O)NC(=O)[C@H](C)NC(=O)[C@@H](NC(=O)[C@H](Cc1c[nH]cn1)NC(=O)[C@@H](NC(=O)[C@H](CCC(=O)O)NC(=O)[C@H](C)NC(=O)[C@@H](NC(=O)[C@H](CC(C)C)NC(=O)[C@H](CCCCN)NC(=O)[C@H](CCCNC(=N)N)NC(=O)[C@H](CC(C)C)NC(=O)[C@H](Cc1c[nH]c2ccccc12)NC(=O)[C@H](CCC(=O)O)NC(=O)[C@@H](NC(=O)[C@H](CCCNC(=N)N)NC(=O)[C@H](CCC(=O)O)NC(=O)[C@H](CCSC)NC(=O)[C@H](CO)NC(=O)[C@H](CC(N)=O)NC(=O)[C@H](CC(C)C)NC(=O)[C@H](Cc1c[nH]cn1)NC(=O)[C@H](CCCCN)NC(=O)CNC(=O)[C@H](CC(C)C)NC(=O)[C@H](CC(N)=O)NC(=O)[C@H](Cc1c[nH]cn1)NC(=O)[C@H](CCSC)NC(=O)[C@H](CC(C)C)NC(=O)[C@H](CCC(N)=O)NC(=O)[C@@H](NC(=O)[C@H](CCC(=O)O)NC(=O)[C@H](CO)NC(=O)[C@@H](NC(=O)[C@@H](N)CO)C(C)C)[C@@H](C)CC)C(C)C)[C@@H](C)CC)[C@@H](C)CC)[C@@H](C)O)C(=O)O` [PTH(1-26)/PTHrP(27-36), hPTH(1-26)/PTHrP(27-36)] (H-SVSEIQLMHNLGKHLNSMERVEWLRKLIAEIHTAEI-OH), the IC50 in experiment [1] turned out to be 310 pM; in experiment [2] it was 7900 pM. Also, the EC50 in experiment [3] turned out to be 1070 pM. Further, the “calcemic action compared with control peptides, in words” value in experiment [4] was “weaker calcemic actions than did either PTH(1-34) or PTHrP(1-36) control peptides”.

Regarding `CC[C@H](C)[C@H](NC(=O)[C@H](CCC(=O)O)NC(=O)[C@H](CO)NC(=O)[C@@H](NC(=O)[C@@H](N)CO)C(C)C)C(=O)N[C@@H](CCC(N)=O)C(=O)N[C@@H](CC(C)C)C(=O)N[C@@H](CCSC)C(=O)N[C@@H](Cc1c[nH]cn1)C(=O)N[C@@H](CC(N)=O)C(=O)N[C@@H](CC(C)C)C(=O)NCC(=O)N[C@@H](CCCCN)C(=O)N[C@@H](Cc1c[nH]cn1)C(=O)N[C@@H](CC(C)C)C(=O)N[C@@H](CC(N)=O)C(=O)N[C@@H](CO)C(=O)N[C@@H](CCSC)C(=O)N[C@@H](CCC(=O)O)C(=O)N[C@@H](CCCNC(=N)N)C(=O)N[C@H](C(=O)N[C@@H](CCC(=O)O)C(=O)N[C@@H](Cc1c[nH]c2ccccc12)C(=O)N[C@@H](CC(C)C)C(=O)N[C@@H](CCCNC(=N)N)C(=O)N[C@@H](CCCCN)C(=O)N[C@@H](CCCCN)C(=O)N[C@@H](CC(C)C)C(N)=O)C(C)C` [hPTH(1-28)NH2] (H-SVSEIQLMHNLGKHLNSMERVEWLRKKL-NH2; N-terminus assumed), the “maximum cAMP response (ligand with IBMX 10 minutes, no wash-out)” value in experiment [5] was determined as 68±3 pmole/well. Moreover, the “dose producing comparable increase in plasma cAMP” value in experiment [6] was 1,000 nmol/kg.

`CC[C@H](C)[C@H](NC(=O)[C@H](CCC(=O)O)NC(=O)[C@H](CO)NC(=O)[C@@H](NC(=O)[C@@H](N)CO)C(C)C)C(=O)N[C@@H](CCC(N)=O)C(=O)N[C@@H](CC(C)C)C(=O)N[C@@H](CCSC)C(=O)N[C@@H](Cc1c[nH]cn1)C(=O)N[C@@H](CC(N)=O)C(=O)N[C@@H](CC(C)C)C(=O)NCC(=O)N[C@@H](CCCCN)C(=O)N[C@@H](Cc1c[nH]cn1)C(=O)N[C@@H](CC(C)C)C(=O)N[C@@H](CC(N)=O)C(=O)N[C@@H](CO)C(=O)N[C@@H](CCSC)C(=O)N[C@@H](CCC(=O)O)C(=O)N[C@@H](CCCNC(=N)N)C(=O)N[C@H](C(=O)N[C@@H](CCC(=O)O)C(=O)N[C@@H](Cc1c[nH]c2ccccc12)C(=O)N[C@@H](CC(C)C)C(=O)N[C@@H](CCCNC(=N)N)C(=O)N[C@@H](CCCCN)C(=O)N[C@@H](CCCCN)C(=O)N[C@@H](CC(C)C)C(=O)N[C@@H](CCC(N)=O)C(=O)N[C@@H](CC(=O)O)C(=O)N[C@H](C(=O)N[C@@H](Cc1c[nH]cn1)C(=O)N[C@@H](CC(N)=O)C(=O)N[C@@H](Cc1ccccc1)C(N)=O)C(C)C)C(C)C` [hPTH(1-34)NH2]: in experiment [5], the “maximum cAMP response (ligand with IBMX 10 minutes, no wash-out)” value is reported as 67±6 pmole/well. Besides, the “dose producing comparable increase in plasma cAMP” value in experiment [6] is given as 50 nmol/kg.
